# In patent US7544710B2 (Les Laboratoires Servier, priority 2002, dated 2009):
# Test system: animals
# Assay: In vivo study with a different strontium salt (strontium chloride)
compound,measurement,value
[Cl-].[Cl-].[Sr+2] [strontium chloride],superficial haemorrhagic lesions in the animals treated,very rapidly caused superficial haemorrhagic lesions
